# Data taken from ChEMBL document CHEMBL5729561, “Compounds and uses thereof” (2023).
# Assay: On day 0 cells were seeded in 30 μL media into each well of 384-well cell culture plates. The seeding density was 8000 cells/well. On day 1, cells were treated with 30 nL DMSO or 30 nL of 3-fold serially DMSO-diluted compounds (10 points in duplicates with 1 μM as final top dose). Subsequently plates were incubated for 6 hours in a standard tissue culture incubator and equilibrated at room temperature for 15 minutes. Nanoluciferase activity was measured by adding 15 μL of freshly prepared Nano-Glo Luciferase Assay Reagent (Promega N1130), shaking the plates for 10 minutes and reading the bioluminescence using an EnVision reader.
# Type: cell-based
row,Structure (SMILES),IC50
1,COc1cc(-c2cn(C)c(=O)c3cnccc23)cc(OC)c1CN(C)C(=O)CCCCN1CCOC2(CCN(c3ccc4c(c3)C(=O)N(C3CCC(=O)NC3=O)C4=O)CC2)C1 (stereo not given),< 10 nM
2,COc1cc(-c2cn(C)c(=O)c3cnccc23)cc(OC)c1CN1CC(CC(=O)NCCCCCCCCNc2cccc3c2C(=O)N(C2CCC(=O)NC2=O)C3=O)C1 (stereo not given),< 10 nM
3,COc1cc(-c2cn(C)c(=O)c3cnccc23)cc(OC)c1CN1CC(C(=O)NCCS(=O)(=O)CCNc2cccc3c2C(=O)N(C2CCC(=O)NC2=O)C3=O)C1 (stereo not given),in the range around 55 nM
4,COc1cc(-c2cn(C)c(=O)c3cnccc23)cc(OC)c1CN1CC(C(=O)N(C)CCCCCCCCNc2cccc3c2C(=O)N(C2CCC(=O)NC2=O)C3=O)C1 (stereo not given),< 10 nM
5,COc1cc(-c2cn(C)c(=O)c3cnccc23)cc(OC)c1CNCCOCC(=O)N1CC(COc2ccc3c(c2)C(=O)N(C2CCC(=O)NC2=O)C3=O)C1 (stereo not given),in the range around 550 nM
6,COc1cc(-c2cn(C)c(=O)c3cnccc23)cc(OC)c1CN(C)CC12CC(C(=O)NCCCCCNc3cccc4c3C(=O)N(C3CCC(=O)NC3=O)C4=O)(C1)C2 (stereo not given),< 10 nM
7,COc1cc(-c2cn(C)c(=O)c3cnccc23)cc(OC)c1CN(C)CC(=O)N1CCC(C2CCN(C(=O)COc3cccc4c3C(=O)N(C3CCC(=O)NC3=O)C4=O)CC2)CC1 (stereo not given),in the range around 55 nM
8,COc1cc(-c2cn(C)c(=O)c3cnccc23)cc(OC)c1CN1CC[C@H]1C(=O)NCCCCCCCCNc1cccc2c1C(=O)N(C1CCC(=O)NC1=O)C2=O (stereo not given in full),< 10 nM
9,COc1cc(-c2cn(C)c(=O)c3cnccc23)cc(OC)c1CN1CCN(C(=O)CCCCOc2cccc3c2C(=O)N(C2CCC(=O)NC2=O)C3=O)CC1 (stereo not given),< 10 nM
10,COc1cc(-c2cn(C)c(=O)c3cnccc23)cc(OC)c1CN(C)CC12CC(C(=O)NCCOCCOCCNc3cccc4c3C(=O)N(C3CCC(=O)NC3=O)C4=O)(C1)C2 (stereo not given),in the range around 550 nM
11,COc1cc(-c2cn(C)c(=O)c3cnccc23)cc(OC)c1CN1CC[C@H]1C(=O)NCCN(C)CCNc1cccc2c1C(=O)N(C1CCC(=O)NC1=O)C2=O (stereo not given in full),in the range around 550 nM
12,COc1cc(-c2cn(C)c(=O)c3cnccc23)cc(OC)c1CN1CC(S(=O)(=O)NCCCCCCCCNc2cccc3c2C(=O)N(C2CCC(=O)NC2=O)C3=O)C1 (stereo not given),< 10 nM
13,COc1cc(-c2cn(C)c(=O)c3cnccc23)cc(OC)c1CN1CC(C(=O)NCCCCCCCCNc2cccc3c2C(=O)N(C2CCC(=O)NC2=O)C3=O)C1 (stereo not given),< 10 nM
14,COc1cc(-c2cn(C)c(=O)c3cnccc23)cc(OC)c1CN1CCC2(CC1)CN(C(=O)CCCCOc1cccc3c1C(=O)N(C1CCC(=O)NC1=O)C3=O)CCO2 (stereo not given),< 10 nM
15,COc1cc(-c2cn(C)c(=O)c3cnccc23)cc(OC)c1CN(C)CCCOCCN1CCN(c2ccc3c(c2)C(=O)N(C2CCC(=O)NC2=O)C3=O)CC1 (stereo not given),in the range around 55 nM
16,COc1cc(-c2cn(C)c(=O)c3cnccc23)cc(OC)c1CN(C)NC(=O)CCCCC(=O)NC12CC(Nc3cccc4c3C(=O)N(C3CCC(=O)NC3=O)C4=O)(C1)C2 (stereo not given),< 10 nM
17,COc1cc(-c2cn(C)c(=O)c3cnccc23)cc(OC)c1CN1CC(C)(C(=O)NCCCCCCCCNc2cccc3c2C(=O)N(C2CCC(=O)NC2=O)C3=O)C1 (stereo not given),< 10 nM
18,COc1cc(-c2cn(C)c(=O)c3cnccc23)cc(OC)c1CN(C)C12CC(C(=O)NCCOCCOCCNc3cccc4c3C(=O)N(C3CCC(=O)NC3=O)C4=O)(C1)C2 (stereo not given),< 10 nM
19,COc1cc(-c2cn(C)c(=O)c3cnccc23)cc(OC)c1CN1CC[C@H]1C(=O)NCCN(C)CCNC(=O)COc1ccc2c(c1)C(=O)N(C1CCC(=O)NC1=O)C2=O (stereo not given in full),> 1000 nM
20,COc1cc(-c2cn(C)c(=O)c3cnccc23)cc(OC)c1CN1CC2(C1)CN(C(=O)COc1cccc3c1C(=O)N(C1CCC(=O)NC1=O)C3=O)C2 (stereo not given),in the range around 550 nM
21,COc1cc(-c2cn(C)c(=O)c3cnccc23)cc(OC)c1CN(C)CC12CC(NC(=O)CCCCOc3cccc4c3C(=O)N(C3CCC(=O)NC3=O)C4=O)(C1)C2 (stereo not given),< 10 nM
22,COc1cc(-c2cn(C)c(=O)c3cnccc23)cc(OC)c1CN1CC(C(=O)NCCCCCCCCNc2cccc3c2C(=O)N(C2CCC(=O)N(C)C2=O)C3=O)C1 (stereo not given),> 1000 nM
23,COc1cc(-c2cn(C)c(=O)c3cnccc23)cc(OC)c1CN1CCN(C(=O)C2CC2CNC(=O)COc2cccc3c2C(=O)N(C2CCC(=O)NC2=O)C3=O)CC1 (stereo not given),in the range around 550 nM
24,COc1cc(-c2cn(C)c(=O)c3cnccc23)cc(OC)c1CNCCCN1CC(Oc2ccc3c(c2)C(=O)N(C2CCC(=O)NC2=O)C3=O)C1 (stereo not given),in the range around 55 nM
25,COc1cc(-c2cn(C)c(=O)c3cnccc23)cc(OC)c1CN(C)CCCN1CCC(Oc2ccc3c(c2)C(=O)N(C2CCC(=O)NC2=O)C3=O)CC1 (stereo not given),< 10 nM
26,COc1cc(-c2cn(C)c(=O)c3cnccc23)cc(OC)c1CN(C)CC(=O)NCCCCN1CCOC2(CCN(c3ccc4c(c3)C(=O)N(C3CCC(=O)NC3=O)C4=O)CC2)C1 (stereo not given),< 10 nM
27,COc1cc(-c2cn(C)c(=O)c3cnccc23)cc(OC)c1CN1CC[C@H]1CN(C)Cc1cccc2c1C(=O)N(C1CCC(=O)NC1=O)C2=O (stereo not given in full),in the range around 55 nM
28,COc1cc(-c2cn(C)c(=O)c3cnccc23)cc(OC)c1CN(C)C12CC(NC(=O)CCOCCOCCNc3cccc4c3C(=O)N(C3CCC(=O)NC3=O)C4=O)(C1)C2 (stereo not given),< 10 nM

row,Structure (SMILES),IC50
1,COc1cc(-c2cn(C)c(=O)c3cnccc23)cc(OC)c1CN(C)Cc1cn(-c2ccc3c(c2)C(=O)N(C2CCC(=O)NC2=O)C3=O)nn1 (stereo not given),in the range around 550 nM
2,COc1cc(-c2cn(C)c(=O)c3cc(O)ccc23)cc(OC)c1CN1CCC2(CC1)CN(C(=O)CCCOc1cccc3c1C(=O)N(C1CCC(=O)NC1=O)C3=O)CCO2 (stereo not given),in the range around 55 nM
3,COc1cc(-c2cn(C)c(=O)c3cnccc23)cc(OC)c1CN1CCCC(OCc2cn(CCCCOc3ccc4c(c3)C(=O)N(C3CCC(=O)NC3=O)C4=O)nn2)C1 (stereo not given),in the range around 55 nM
4,COc1cc(-c2cn(C)c(=O)c3cnccc23)cc(OC)c1CN1CC(S(=O)(=O)NCCOCCOCCNc2cccc3c2C(=O)N(C2CCC(=O)NC2=O)C3=O)C1 (stereo not given),< 10 nM
5,COc1cc(-c2cn(C)c(=O)c3cnccc23)cc(OC)c1CN1CC2(C1)CN(C(=O)CCCOc1cccc3c1C(=O)N(C1CCC(=O)NC1=O)C3=O)C2 (stereo not given),in the range around 55 nM
6,COc1cc(-c2cn(C)c(=O)c3cnccc23)cc(OC)c1CN(C)C12CC(NC(=O)CCCCCOc3cccc4c3C(=O)N(C3CCC(=O)NC3=O)C4=O)(C1)C2 (stereo not given),< 10 nM
7,COc1cc(-c2cn(C)c(=O)c3cnccc23)cc(OC)c1CN1CC(C(=O)N2CCC(C3CCN(C(=O)COc4cccc5c4C(=O)N(C4CCC(=O)NC4=O)C5=O)CC3)CC2)C1 (stereo not given),< 10 nM
8,COc1cc(-c2cn(C)c(=O)c3cnccc23)cc(OC)c1CN1CC(C(=O)NCCCCCCCCNC(=O)COc2cccc3c2C(=O)N(C2CCC(=O)NC2=O)C3=O)C1 (stereo not given),in the range around 55 nM
9,COc1cc(-c2cn(C)c(=O)c3cnccc23)cc(OC)c1CN1CC(C(=O)NCCCCCNc2cccc3c2C(=O)N(C2CCC(=O)NC2=O)C3=O)C1 (stereo not given),< 10 nM
10,COc1cc(-c2cn(C)c(=O)c3cnccc23)cc(OC)c1CN1CC(OCc2cn(CCOc3ccc4c(c3)C(=O)N(C3CCC(=O)NC3=O)C4=O)nn2)C1 (stereo not given),in the range around 55 nM
11,COc1cc(-c2cn(C)c(=O)c3cnccc23)cc(OC)c1CN1CC(NC(=O)CCCCCOc2cccc3c2C(=O)N(C2CCC(=O)NC2=O)C3=O)C1 (stereo not given),in the range around 55 nM
12,COc1cc(-c2cn(C)c(=O)c3cnccc23)cc(OC)c1CN1CC(S(=O)(=O)NCCCCNc2ccc3c(c2)C(=O)N(C2CCC(=O)NC2=O)C3=O)C1 (stereo not given),in the range around 55 nM
13,COc1cc(-c2cn(C)c(=O)c3cnccc23)cc(OC)c1CN1CCN(C(=O)CCCOc2cccc3c2C(=O)N(C2CCC(=O)NC2=O)C3=O)CC1 (stereo not given),< 10 nM
14,COc1cc(-c2cn(C)c(=O)c3cnccc23)cc(OC)c1CN1CCN(C(=O)C2CC2CNC(=O)COc2ccc3c(c2)C(=O)N(C2CCC(=O)NC2=O)C3=O)CC1 (stereo not given),in the range around 550 nM
15,COc1cc(-c2cn(C)c(=O)c3cnccc23)cc(OC)c1CN1CCC2(CC1)CN(C(=O)CCCOc1cccc3c1C(=O)N(C1CCC(=O)NC1=O)C3=O)CCO2 (stereo not given),< 10 nM
16,COc1cc(-c2cn(C)c(=O)c3cnccc23)cc(OC)c1CN1CC(S(=O)(=O)NCCCCCCNc2ccc3c(c2)C(=O)N(C2CCC(=O)NC2=O)C3=O)C1 (stereo not given),< 10 nM
17,COc1cc(-c2cn(C)c(=O)c3cnccc23)cc(OC)c1CN1CCC2(CC1)CN(C(=O)COc1cccc3c1C(=O)N(C1CCC(=O)NC1=O)C3=O)CCO2 (stereo not given),in the range around 55 nM
18,COc1cc(-c2cn(C)c(=O)c3cnccc23)cc(OC)c1CN1CC(S(=O)(=O)NCCCCCNc2ccc3c(c2)C(=O)N(C2CCC(=O)NC2=O)C3=O)C1 (stereo not given),< 10 nM
19,COc1cc(-c2cn(C)c(=O)c3cnccc23)cc(OC)c1CN(C)CC12CC(NC(=O)CCOCCOCCNc3cccc4c3C(=O)N(C3CCC(=O)NC3=O)C4=O)(C1)C2 (stereo not given),in the range around 550 nM
20,COc1cc(-c2cn(C)c(=O)c3cnccc23)cc(OC)c1CN1CCN(CCCOc2ccc3c(c2)C(=O)N(C2CCC(=O)NC2=O)C3=O)CC1 (stereo not given),< 10 nM
21,COc1cc(-c2cn(C)c(=O)c3cnccc23)cc(OC)c1CN1CC2(C1)CN(C(=O)CCCCOc1cccc3c1C(=O)N(C1CCC(=O)NC1=O)C3=O)C2 (stereo not given),< 10 nM
22,COc1cc(-c2cn(C)c(=O)c3cnccc23)cc(OC)c1CN1CCN(C(=O)COc2cccc3c2C(=O)N(C2CCC(=O)NC2=O)C3=O)CC1 (stereo not given),< 10 nM
23,COc1cc(-c2cn(C)c(=O)c3cnccc23)cc(OC)c1CN1CC[C@@H]1C(=O)NCCCCCCCCNc1cccc2c1C(=O)N(C1CCC(=O)NC1=O)C2=O (stereo not given in full),< 10 nM
24,COc1cc(-c2cn(C)c(=O)c3cnccc23)cc(OC)c1CN1CC(C(=O)NCCOCCOCCNc2cccc3c2C(=O)N(C2CCC(=O)NC2=O)C3=O)C1 (stereo not given),in the range around 55 nM
25,COc1cc(-c2cn(C)c(=O)c3cnccc23)cc(OC)c1CN1CC(C(=O)N(C)CCCCCNc2cccc3c2C(=O)N(C2CCC(=O)NC2=O)C3=O)C1 (stereo not given),< 10 nM
26,COc1cc(-c2cn(C)c(=O)c3cnccc23)cc(OC)c1CN(C)C12CC(C(=O)NCCCCCNc3cccc4c3C(=O)N(C3CCC(=O)NC3=O)C4=O)(C1)C2 (stereo not given),< 10 nM
27,COc1cc(-c2cn(C)c(=O)c3cnccc23)cc(OC)c1CN1CCC2(CC1)CN(C(=O)COc1ccc3c(c1)C(=O)N(C1CCC(=O)NC1=O)C3=O)CCO2 (stereo not given),in the range around 550 nM
